Test results from patent US10907168B2, “Jasmonic acid pathway activator” (MEDICAGO INC., priority 2015, dated 2021).

Assays:
[1] = system: RuBisCO large and small subunit; experiment: RuBisCO large and small subunit levels, immunodetection and densitometry; assay type: in vivo, Nicotiana benthamiana; settings: for depletion of RuBisCO large and small subunit pools, less than in controls: uninfiltrated leaves, seven days post-treatment
Description: FIGS. 1a-1d show total soluble proteins (TSP), 1-D proteome profile and RuBisCO subunit levels in agroinfiltrated and control N. benthamiana leaves treated with the stress elicitor MeJA 24 h before infection. […] FIGS. 1c and 1d show relative amounts of RuBisCO large (RbcL; FIG. 1c) and small (RbsS; FIG. 1d) subunits in MeJA-treated leaves as determined by densitometry following immunodetection with appropriate antibodies. Protein signals on the immunoblots were quantified using the Phoretix 2-D Expression software v. 2005 (NonLinear USA, Durham N.C., U.S.A.) after scanning nitrocellulose membranes with a Microtek ScanMaker II digitalizer (Microtek Laboratory, Torrance Calif., U.S.A.). Data are expressed as relative levels compared to non-treated controls assigned an arbitrary level of 1.0. Each bar on panels (a) and (c) is the mean of three independent (leaf replicate) values±SE. Infiltrated leaves were transfected with A. tumefaciens cells 24 h post-MeJA treatment. All plant samples were harvested seven days post-MeJA treatment (i.e. six days post-agroinfiltration for the transfected plants).
Forty-two day-old N. benthamiana plants grown in greenhouse were used for the experiments. Each plant was sprayed evenly with 50 ml of 0.5 mM, 1 mM or 2 mM MeJA in water containing 0.1% (v/v) Triton X-100 (Sigma-Aldrich, Mississauga ON, Canada), or with 50 ml of 1 mM arachidonic acid (Girard et al., 2007) in the same solvent, and transferred for seven days in a Conviron growth chamber (Conviron, Winnipeg MB, Canada). Plants sprayed with 50 ml of 0.1% (v/v) Triton X-100 in water were used in parallel as negative controls to avoid confounding effects due to experimental conditions. Two or three 1-cm^2 leaf discs were harvested from the third main stem leaf (see Robert et al., 2013) after seven days, as source material for protein and RNA extraction. The leaf samples were frozen immediately in liquid nitrogen and stored at −80° C. until protein or RNA extraction. Three to five biological (plant) replicates were used for each treatment, to allow for statistical treatment of the data. […]

A. tumefaciens VirE1 = experiment: Real-time RT PCR of VirE1 transcripts in agroinfiltrated leaves; assay type: in vivo, Agrobacterium tumefaciens; settings: 1 mM, seven days post-treatment
Description: mRNA transcripts for C5-1 and A. tumefaciens virulence proteins VirB1 and VirE1 were assayed by real-time RT PCR using an ABI PRISM 7500 Fast real-time PCR apparatus, system version 2.0.1 (Applied Biosystems, Carlsbad Calif., U.S.A.). Total RNA was extracted from two 1-cm^2 leaf discs collected on the third main stem leaf (Robert et al., 2013) using the Qiagen RNeasy plant mini kit (Qiagen), following the supplier's instructions. RNA samples were treated with DNase I (Roche Diagnostics) to remove contaminant DNA and assessed for quality and quantity using a Nanodrop® ND-1000 spectrophotometer (NanoDrop Technologies, Wilmington Del., USA). First-strand cDNA was synthesized from 500 ng of total RNA using 4 units of Omniscript reverse transcriptase (Qiagen) and 1 μM of oligo-dT (15) nucleotides (Roche). PCR reactions contained 10 μl of Fast SYBR Green PCR Master Mix (Applied Biosystems), 2 μl of cDNA template, and 2.5 μl each of appropriate forward and reverse primers at 625 nM final concentration (Table 1). A no-template mixture control was included in each 96-well plate. Amplification rounds consisted of a 20-s denaturation step at 95° C., followed by 40 two-step cycles of 3 s at 95° C. and 30 s at 60° C. […]

For `CC/C=C\C[C@H]1C(=O)CC[C@@H]1CC(=O)OC` [MeJA, methyl jasmonate], the “depletion of RuBisCO large and small subunit pools, less than in controls” value ([1]; 0.5 mM dose) was about 40%, the “depletion of RuBisCO large and small subunit pools, less than in controls” value ([1]; 2 mM dose) was “more than 90%” and the “RuBisCO large and small subunits, share of original content relative to untreated plants” value ([1]; agroinfiltrated leaves (empty vector, 24 h post-treatment), 1 or 2 mM, six days post-infection) was “less than 50%”. The “VirE1 transcription versus control leaves” value (A. tumefaciens VirE1) was “no positive effect”.
